Source: PMC9486541, “Design, synthesis and cytotoxic evaluation of novel betulonic acid-diazine derivatives as potential antitumor agents” (Frontiers in Chemistry, 2022)

Assays:
MCF-7 cells [1] = assay: DAPI staining of nuclear changes, MCF-7; format: cell-based, human; settings: MCF-7 cells, 2, 4, 8 μM, 72 h
Experimental: Morphological observation of nuclear changes was performed by DAPI staining in this assay. MCF-7 cells in the logarithmic growth phase were seeded in 12-well plates at a density of 5 × 10^3 cells/well and were allowed to grow for 24 h. Then the cells were treated with different concentration ranges of BoA2C (0, 2, 4 8 μM) for 72 h. After the treatment period, cells were washed with PBS and fixed with 4% paraformaldehyde for 10 min. Then the liquid was discarded, and the cells were stained with DAPI (1 mg/ml, Molecular Probes/Invitrogen Life Technologies, Carlsbad, CA, United States) for 1 min in dark. After staining, cells were visualized under a fluorescence microscope (Olympus IX71, Tokyo, Japan).

MCF-7 cells [2] = assay: Cellular metabolomics study (LC-MS); format: cell-based, human; settings: MCF-7, BoA2C (2 μM) 72 h, BoA2C and Control groups
Experimental: To eliminate excess medium, cells were washed twice with 1 ml of PBS solution. The wells were then filled with 2 ml of ACN: MeOH: H2O 50:30:20 (v/v) and placed in the freezer for 20 min. The extracts obtained in an Eppendorf tube after the cells were scraped and vortexed. The mixture was then centrifuged for 10 min at 10,000 rpm and 4°C, and the supernatant was collected and dried with an evaporator. 300 μl MeOH was used for reconstitution. 15 μL of the reconstituted extract was mixed with 15 μl H2O and […] ACN for the metabolomics analysis of the intracellular material. After centrifugation (10 min, 4°C, 11,800 g), the supernatant was transferred to an LC-MS vial for analysis.
An Acquity UPLC HSS T3 column (1.8 μm 100 × 2.1 mm) using an UltiMate 3000 high performance LC system coupled to Q Exactive MS was used for metabolic profiling ([Shu et al., 2020]). At a flow rate of 0.3 ml/min, mobile phase A (water containing 0.1% acid) and mobile phase B (methanol) were used. A was reduced from 80 % to 70% from 0 to 2 min, A was reduced to 55% from 2 to 5 min, A was reduced to 40% from 5 to 6.5 min, A was reduced to 35% from 6.5 to 12 min, A was last reduced to 0 from 12 to 18 min. The gradient of the mobile phase was as follows: The column oven temperature was set to 40°C, and the autosampler temperature was set to 4°C. The injection volume was 1 μl. MS used electron spray ionization to operate in both positive and negative ionization modes (ESI). To assess the stability and repeatability of the LC-MS-based metabolomics method, quality control (QC) samples were used. Each QC sample was made by combining five samples of the same volume (100 μL) in the order of analysis. To ensure the system method’s stable operation, all combined QC samples for running all QC samples made by every five samples before analysis. After five samples were tested during the analysis run, the combined QC samples of the five samples were taken.
Mass spectrometry data of metabolites in MCF-7 cells was used for metabolomics investigation after co-cultivation with BoA2C (2 μM) for 72 h. The effectiveness of the OPLS-DA model to distinguish between the BoA2C and Control groups was assessed using the success criterion of R^2 ≥ 0.7 and Q^2 ≥ 0.4 ([Martin-Blazquez et al., 2019]). […] VIP-plots were investigated using the OPLS-DA models to examine important factors that led to the differentiation of the metabolome between the BoA2C and Control groups. Variables having a VIP value greater than 1 were deemed significant contenders. Matching retention time and MS fragmentation patterns from the MetaboAnalyst (version 5.0) database verified the presence of distinct metabolites ([Pang et al., 2021]). These metabolites were further categorized based on their characteristics, including amino acids, amines, aliphatic acids and bile acids. All differential metabolites were loaded into MetaboAnalyst (version 5.0) for metabolic analysis to further explain the fundamental mechanisms of BoA2C’s cytotoxic impact on breast carcinoma cells. In accordance with the described guidelines, the Homo sapiens pathway library and Fisher’s exact test were used for route enrichment analysis, while relative-betweeness centrality was used for pathway topology analysis ([Pang et al., 2021]). The impacted metabolic pathways were defined as those with a pathway effect value more than 0.10 and a p value less than 0.05. […] Six of them (Figure 7B, Table 3) were primarily involved: 1) arginine and proline metabolism 2) linoleate metabolism 3) bile acid biosynthesis 4) de novo fatty acid biosynthesis 5) fatty acid activation, and (VI) fatty Acid Metabolism.

[3] = Arginine and Proline Metabolism
[4] = De novo fatty acid biosynthesis

C=C(C)[C@@H]1CC[C@]2(C(=O)OCCOC(=O)c3cnc(C)cn3)CC[C@]3(C)[C@H](CC[C@@H]4[C@@]5(C)CCC(=O)C(C)(C)[C@@H]5CC[C@]43C)[C@@H]12 [BoA2C, (5-Methylpyrazin-2-acyloxy)-ethyl-3-oxolup-20(29)-en-28-oate]
nuclear morphological changes (DAPI staining) (MCF-7 cells [1]): nuclear morphological changes typical of apoptosis in a dose-dependent manner | fold change of 4-Acetamidobutanoic acid (M4) (MCF-7 cells [2]; [3]): 2.37 | fold change of 5′-Methylthioadenosine (M10) (MCF-7 cells [2]; [3]): 28.55 | fold change of L-4-Hydroxyglutamate semialdehyde (M6) (MCF-7 cells [2]; [3]): 1.99 | fold change of L-Arginine (M14) (MCF-7 cells [2]; [3]): 1.90 | fold change of L-Glutamic acid (M18) (MCF-7 cells [2]; [3]): 1.94 | fold change of L-Glutamine (M7) (MCF-7 cells [2]; [3]): 2.33 | fold change of L-Methionine (M12) (MCF-7 cells [2]; [3]): 3.63 | fold change of L-Proline (M5) (MCF-7 cells [2]; [3]): 2.40 | fold change of 3,7-Dihydroxycoprostanic Acid (M21) (MCF-7 cells [2]; Bile acid biosynthesis): 1027.39 | fold change of 3a,7a-Dihydroxy-5b-cholestan-26-al (M13) (MCF-7 cells [2]; Bile acid biosynthesis): 241.46 | fold change of 3 alpha,7 alpha,26-Trihydroxy-5beta-cholestane (M3) (MCF-7 cells [2]; Bile acid biosynthesis): 362.98 | fold change of 7a,12a-Dihydroxy-cholestene-3-one (M16) (MCF-7 cells [2]; Bile acid biosynthesis): 17.04 | fold change of 7a-Hydroxy-5b-cholestan-3-one (M25) (MCF-7 cells [2]; Bile acid biosynthesis): 9.40 | fold change of 7a-Hydroxy-cholestene-3-one (M28) (MCF-7 cells [2]; Bile acid biosynthesis): 4.47 | fold change of 7alpha-Hydroxycholesterol (M17) (MCF-7 cells [2]; Bile acid biosynthesis): 92.35 | fold change of 27-Deoxy-5b-cyprinol (M24) (MCF-7 cells [2]; Bile acid biosynthesis): 2.03 | fold change of Cholesterol (M1) (MCF-7 cells [2]; Bile acid biosynthesis): 7.69 | fold change of Cholic acid (M2) (MCF-7 cells [2]; Bile acid biosynthesis): 2.55 | fold change of Lithocholic acid (M27) (MCF-7 cells [2]; Bile acid biosynthesis): 108.49 | fold change of Palmitic acid (M11) (MCF-7 cells [2]; [4]): 23.17 | fold change of alpha-Linolenic acid (M26) (MCF-7 cells [2]; [4]): 2.19 | fold change of 2-trans-dodecenoyl-CoA (M22) (MCF-7 cells [2]; Fatty Acid Metabolism): 1.93 | fold change of 3-Oxotetradecanoyl-CoA (M15) (MCF-7 cells [2]; Fatty Acid Metabolism): 1.77 | fold change of 13-HODE (M23) (MCF-7 cells [2]; Linoleate metabolism): 108.54 | fold change of 13-Hpode (M9) (MCF-7 cells [2]; Linoleate metabolism): 23.04 | fold change of Ascorbic Acid (M19) (MCF-7 cells [2]; Linoleate metabolism): 2.88 | fold change of Linoleic acid (M20) (MCF-7 cells [2]; Linoleate metabolism): 159.58 | fold change of LysoPC(P-18:0/0:0) (M8) (MCF-7 cells [2]; Linoleate metabolism): 3.29
